# From US5773449A, “Thioquinolone compounds which have useful pharmaceutical activity” (Zenyaku Kogyo Kabushiki Kaisha, priority 1994, dated 1998)
# Tested on: S.aureus FDA 209P
# Test: Antibacterial Test 2: agar plate dilution method (aerobic MIC method), S.aureus
# Format: cell-based
# Settings: Staphylococcus aureus, FDA209P, sensitive-disk agar medium-N
# Method: (§1) Then, tested were antibacterial activities of the typical compounds of the present invention against gram-positive and-negative bacteria other than Hp. MICs of the typical compounds of the present invention were determined in substantial accordance with agar plate dilution method (aerobic MIC method) based on Standard method of The Japan Society of Chemotherapy.
# (§2) The respective test compound were dissolved in dimethyl sulfoxide (DMSO) and serially diluted twofold. These diluted solutions of the compounds were respectively added to sensitive-disk agar medium-N (manufactured by NISSUI SEIYAKU) to prepare agar plates for determination with concentration of 0.05-100 μg/ml.
# (§3) The below-mentioned strains freezingly conserved at -135° C. were thawed in a warm bath (40° C.), cultured in a sensitivity-determining bouillon at 37° C. for 18-20 hours, and then diluted with the above-mentioned medium to prepare about 1.0×10^6CFU/ml of bacterial solution.
# (§4) Inoculation was made by 5 μl by multi-inoculator (manufactured by SAKUMA SEISAKUSHO). Culturing was made under the same conditions as those of the pre-culturing and the MIC (unit: μg/ml) was determined by observing whether the bacteria grew or not.
row,Compound,MIC [µg/mL]
1,"O=C(O)CCCCCOc1ccc2c(=S)cc[nH]c2c1 [compound 51, 7-(5-Carboxy-n-pentyloxy)quinoline-4(1H)-thione]",100
2,"CCCCCCCCOc1ccc2c(=S)cc[nH]c2c1 [compound 53, 7-Octyloxyquinoline-4(1H)-thione]",> 100
3,"S=c1cc[nH]c2cc(N3CCNCC3)ccc12 [compound 54, 7-(1-Piperazinyl)quinoline-4(1H)-thione]",100
4,"Cc1ccc2c(=S)cc[nH]c2c1C [compound 55, 7,8-Dimethylquinoline-4(1H)-thione]",> 100

# Now from value to compound:
row,MIC [µg/mL],Compound
1,> 100,"CC(C)Sc1ccc2c(=S)cc[nH]c2c1 [compound 49, 7-Isopropylthioquinoline-4(1H)-thione]"
2,> 100,"S=c1cc[nH]c2cc(CSc3nc4ccccc4[nH]3)ccc12 [compound 50, 7-(2-Benzimidazolyl)thiomethylquinoline-4(1H)-thione]"
3,> 100,"Cc1c(OCC(F)(F)F)ccnc1C[S+]([O-])c1nc2ccccc2[nH]1 (centres unmarked) [lansoprazole, reference compound]"

# Tested on: K.pneumoniae PCI 602
# Test: Antibacterial Test 2: agar plate dilution method (aerobic MIC method), K.pneumoniae
# Format: cell-based
# Settings: Klebsiella pneumoniae, PCI602, sensitive-disk agar medium-N
# Method: as §1, §2, §3, §4
row,Compound,MIC [µg/mL]
1,"O=C(O)CCCCCOc1ccc2c(=S)cc[nH]c2c1 [compound 51, 7-(5-Carboxy-n-pentyloxy)quinoline-4(1H)-thione]",> 100
2,"CCCCCCCCOc1ccc2c(=S)cc[nH]c2c1 [compound 53, 7-Octyloxyquinoline-4(1H)-thione]",> 100
3,"S=c1cc[nH]c2cc(N3CCNCC3)ccc12 [compound 54, 7-(1-Piperazinyl)quinoline-4(1H)-thione]",> 100
4,"Cc1ccc2c(=S)cc[nH]c2c1C [compound 55, 7,8-Dimethylquinoline-4(1H)-thione]",> 100

# Next, values leading:
row,MIC [µg/mL],Compound
1,> 100,"CC(C)Sc1ccc2c(=S)cc[nH]c2c1 [compound 49, 7-Isopropylthioquinoline-4(1H)-thione]"
2,> 100,"S=c1cc[nH]c2cc(CSc3nc4ccccc4[nH]3)ccc12 [compound 50, 7-(2-Benzimidazolyl)thiomethylquinoline-4(1H)-thione]"
3,> 100,"Cc1c(OCC(F)(F)F)ccnc1C[S+]([O-])c1nc2ccccc2[nH]1 (centres unmarked) [lansoprazole, reference compound]"

# Tested on: P.aeruginosa IFO 3445
# Test: Antibacterial Test 2: agar plate dilution method (aerobic MIC method), P.aeruginosa
# Format: cell-based
# Settings: Pseudomonas aeruginosa, IFO3445, sensitive-disk agar medium-N
# Method: as §1, §2, §3, §4
row,Compound,MIC [µg/mL]
1,"O=C(O)CCCCCOc1ccc2c(=S)cc[nH]c2c1 [compound 51, 7-(5-Carboxy-n-pentyloxy)quinoline-4(1H)-thione]",> 100
2,"CCCCCCCCOc1ccc2c(=S)cc[nH]c2c1 [compound 53, 7-Octyloxyquinoline-4(1H)-thione]",> 100
3,"S=c1cc[nH]c2cc(N3CCNCC3)ccc12 [compound 54, 7-(1-Piperazinyl)quinoline-4(1H)-thione]",> 100
4,"Cc1ccc2c(=S)cc[nH]c2c1C [compound 55, 7,8-Dimethylquinoline-4(1H)-thione]",> 100

# Second part, the compound after the results:
row,MIC [µg/mL],Compound
1,> 100,"CC(C)Sc1ccc2c(=S)cc[nH]c2c1 [compound 49, 7-Isopropylthioquinoline-4(1H)-thione]"
2,> 100,"S=c1cc[nH]c2cc(CSc3nc4ccccc4[nH]3)ccc12 [compound 50, 7-(2-Benzimidazolyl)thiomethylquinoline-4(1H)-thione]"
3,> 100,"Cc1c(OCC(F)(F)F)ccnc1C[S+]([O-])c1nc2ccccc2[nH]1 (centres unmarked) [lansoprazole, reference compound]"

# Tested on: E.coli NIHJ JC-2
# Test: Antibacterial Test 2: agar plate dilution method (aerobic MIC method), E.coli
# Format: cell-based
# Settings: Escherichia coli, NIHJJC2, sensitive-disk agar medium-N
# Method: as §1, §2, §3, §4
row,Compound,MIC [µg/mL]
1,"O=C(O)CCCCCOc1ccc2c(=S)cc[nH]c2c1 [compound 51, 7-(5-Carboxy-n-pentyloxy)quinoline-4(1H)-thione]",> 100
2,"CCCCCCCCOc1ccc2c(=S)cc[nH]c2c1 [compound 53, 7-Octyloxyquinoline-4(1H)-thione]",> 100
3,"S=c1cc[nH]c2cc(N3CCNCC3)ccc12 [compound 54, 7-(1-Piperazinyl)quinoline-4(1H)-thione]",> 100
4,"Cc1ccc2c(=S)cc[nH]c2c1C [compound 55, 7,8-Dimethylquinoline-4(1H)-thione]",> 100

# Results, then the compound that gave them:
row,MIC [µg/mL],Compound
1,> 100,"CC(C)Sc1ccc2c(=S)cc[nH]c2c1 [compound 49, 7-Isopropylthioquinoline-4(1H)-thione]"
2,> 100,"S=c1cc[nH]c2cc(CSc3nc4ccccc4[nH]3)ccc12 [compound 50, 7-(2-Benzimidazolyl)thiomethylquinoline-4(1H)-thione]"
3,> 100,"Cc1c(OCC(F)(F)F)ccnc1C[S+]([O-])c1nc2ccccc2[nH]1 (centres unmarked) [lansoprazole, reference compound]"

# Tested on: M.luteus ATCC 9341
# Test: Antibacterial Test 2: agar plate dilution method (aerobic MIC method), M.luteus
# Format: cell-based
# Settings: Micrococcus luteus, ATCC9341, sensitive-disk agar medium-N
# Method: as §1, §2, §3, §4
row,Compound,MIC [µg/mL]
1,"O=C(O)CCCCCOc1ccc2c(=S)cc[nH]c2c1 [compound 51, 7-(5-Carboxy-n-pentyloxy)quinoline-4(1H)-thione]",> 100
2,"CCCCCCCCOc1ccc2c(=S)cc[nH]c2c1 [compound 53, 7-Octyloxyquinoline-4(1H)-thione]",> 100
3,"S=c1cc[nH]c2cc(N3CCNCC3)ccc12 [compound 54, 7-(1-Piperazinyl)quinoline-4(1H)-thione]",> 100
4,"Cc1ccc2c(=S)cc[nH]c2c1C [compound 55, 7,8-Dimethylquinoline-4(1H)-thione]",> 100

# Now from value to compound:
row,MIC [µg/mL],Compound
1,> 100,"CC(C)Sc1ccc2c(=S)cc[nH]c2c1 [compound 49, 7-Isopropylthioquinoline-4(1H)-thione]"
2,> 100,"S=c1cc[nH]c2cc(CSc3nc4ccccc4[nH]3)ccc12 [compound 50, 7-(2-Benzimidazolyl)thiomethylquinoline-4(1H)-thione]"
3,> 100,"Cc1c(OCC(F)(F)F)ccnc1C[S+]([O-])c1nc2ccccc2[nH]1 (centres unmarked) [lansoprazole, reference compound]"

# Tested on: Helicobacter pylori standard strain ATCC 43526 (NCTC 11916)
# Test: Antibacterial test 1: agar plate dilution method (anaerobic MIC method) against Hp
# Format: cell-based
# Settings: 72 h; Helicobacter pylori ATCC 43526 (NCTC 11916); brucella agar + 7% horse blood, microaerobic, 37° C., 3 days
# Method: Antibacterial test against Hp was performed in substantial accordance with agar plate dilution method (anaerobic MIC method) based on Standard method of The Japan Society of Chemotherapy to determine minimum inhibitory concentration (MIC) of the respective test compounds. The respective test compounds were sequentially dissolved in dimethyl sulfoxide (DMSO) and serially diluted twofold. […] Strain used for inoculation was Helicobacter pylori standard strain ATCC 43526 (NCTC 11916). For pre-culturing of bacteria to be inoculated, the above-mentioned strain freezingly conserved at -135° C. was thawed in a warm bath (40° C.), applied on a brucella agar medium containing 7% horse blood free from fibrin, and microaerobically cultured in a jar for anaerobic bacteria at 37° C. for 3 days. The solution of bacteria to be inoculated was prepared by collecting colonies grown on the culture medium and suspending the same in the brucella broth.
row,Compound,MIC [µg/mL]
1,"O=C(O)CCCCCOc1ccc2c(=S)cc[nH]c2c1 [compound 51, 7-(5-Carboxy-n-pentyloxy)quinoline-4(1H)-thione]",1.56
2,"CCCCCCCCOc1ccc2c(=S)cc[nH]c2c1 [compound 53, 7-Octyloxyquinoline-4(1H)-thione]",3.13
3,"S=c1cc[nH]c2cc(N3CCNCC3)ccc12 [compound 54, 7-(1-Piperazinyl)quinoline-4(1H)-thione]",3.13
4,"Cc1ccc2c(=S)cc[nH]c2c1C [compound 55, 7,8-Dimethylquinoline-4(1H)-thione]",0.39

# Continued, values first:
row,MIC [µg/mL],Compound
1,0.39,"CC(C)Sc1ccc2c(=S)cc[nH]c2c1 [compound 49, 7-Isopropylthioquinoline-4(1H)-thione]"
2,1.56,"S=c1cc[nH]c2cc(CSc3nc4ccccc4[nH]3)ccc12 [compound 50, 7-(2-Benzimidazolyl)thiomethylquinoline-4(1H)-thione]"
3,12.5,"Cc1c(OCC(F)(F)F)ccnc1C[S+]([O-])c1nc2ccccc2[nH]1 (centres unmarked) [lansoprazole, reference compound]"

# Tested on: E.faecalis RIMD 3336001
# Test: Antibacterial Test 2: agar plate dilution method (aerobic MIC method), E.faecalis
# Format: cell-based
# Settings: Enterococcus faecalis, RIMD3336001, sensitive-disk agar medium-N
# Method: as §1, §2, §3, §4
row,Compound,MIC [µg/mL]
1,"O=C(O)CCCCCOc1ccc2c(=S)cc[nH]c2c1 [compound 51, 7-(5-Carboxy-n-pentyloxy)quinoline-4(1H)-thione]",100
2,"CCCCCCCCOc1ccc2c(=S)cc[nH]c2c1 [compound 53, 7-Octyloxyquinoline-4(1H)-thione]",> 100
3,"S=c1cc[nH]c2cc(N3CCNCC3)ccc12 [compound 54, 7-(1-Piperazinyl)quinoline-4(1H)-thione]",> 100
4,"Cc1ccc2c(=S)cc[nH]c2c1C [compound 55, 7,8-Dimethylquinoline-4(1H)-thione]",> 100

# The remaining lines, values ahead:
row,MIC [µg/mL],Compound
1,> 100,"CC(C)Sc1ccc2c(=S)cc[nH]c2c1 [compound 49, 7-Isopropylthioquinoline-4(1H)-thione]"
2,> 100,"S=c1cc[nH]c2cc(CSc3nc4ccccc4[nH]3)ccc12 [compound 50, 7-(2-Benzimidazolyl)thiomethylquinoline-4(1H)-thione]"
3,> 100,"Cc1c(OCC(F)(F)F)ccnc1C[S+]([O-])c1nc2ccccc2[nH]1 (centres unmarked) [lansoprazole, reference compound]"

# Tested on: B.subtilis PCI 219
# Test: Antibacterial Test 2: agar plate dilution method (aerobic MIC method), B.subtilis
# Format: cell-based
# Settings: Bacillus subtilis, PCI219, sensitive-disk agar medium-N
# Method: as §1, §2, §3, §4
row,Compound,MIC [µg/mL]
1,"O=C(O)CCCCCOc1ccc2c(=S)cc[nH]c2c1 [compound 51, 7-(5-Carboxy-n-pentyloxy)quinoline-4(1H)-thione]",> 100
2,"CCCCCCCCOc1ccc2c(=S)cc[nH]c2c1 [compound 53, 7-Octyloxyquinoline-4(1H)-thione]",> 100
3,"S=c1cc[nH]c2cc(N3CCNCC3)ccc12 [compound 54, 7-(1-Piperazinyl)quinoline-4(1H)-thione]",> 100
4,"Cc1ccc2c(=S)cc[nH]c2c1C [compound 55, 7,8-Dimethylquinoline-4(1H)-thione]",> 100

# More lines, now with the values ahead:
row,MIC [µg/mL],Compound
1,> 100,"CC(C)Sc1ccc2c(=S)cc[nH]c2c1 [compound 49, 7-Isopropylthioquinoline-4(1H)-thione]"
2,> 100,"S=c1cc[nH]c2cc(CSc3nc4ccccc4[nH]3)ccc12 [compound 50, 7-(2-Benzimidazolyl)thiomethylquinoline-4(1H)-thione]"
3,> 100,"Cc1c(OCC(F)(F)F)ccnc1C[S+]([O-])c1nc2ccccc2[nH]1 (centres unmarked) [lansoprazole, reference compound]"
